Entries after “also recorded” stand apart in the source; their conditions may differ.
What was measured:
[1] = test system: paclitaxel binding site on tubulin; test: Paclitaxel binding site inhibition assay ([3H]paclitaxel displacement); set-up: species or system bovine
Protocol: Paclitaxel binding site inhibition assay. A stock solution of [^3H]paclitaxel (26.8 μM, 16.2 Ci/mmol), obtained from the NCI, was prepared in 37% (v/v) DMSO. The test agents were prepared in 25% (v/v) DMSO-0.75 M monosodium glutamate (prepared from a 2M stock solution adjusted to pH 6.6 with HCl). The radiolabeled paclitaxel and test agents, as indicated in terms of final concentrations, were mixed in equal volumes and warmed to 37° C. A reaction mixture (50 μL) containing 0.75 M monosodium glutamate, 4.0 μM tubulin, and 40 μM ddGTP (a non-hydrolyzable analog of GTP) was prepared and incubated at 37° C. for 30 min to preform microtubules. An equivalent volume of drug mixture with [^3H]paclitaxel was added to preformed polymer and incubated for 30 min at 37° C. Bound [^3H]paclitaxel was separated from free drug by centrifugation of the reaction mixtures at 14000 rpm for 20 min at room temperature. Non-specific binding was determined by addition of a 12-fold excess of docetaxel. Radioactive counts from the supernatant (50 μL) were determined by scintillation spectrometry. Bound [^3H]paclitaxel was calculated from the following: total paclitaxel added to each reaction mixture minus the paclitaxel present in the supernatant (free drug). The % bound values were normalized to the control values with no inhibitor added.

MDA-MB231 (breast) = test: Cell growth inhibition, MDA-MB231 (breast); format: cell-based, human; conditions: for GI50: Homo sapiens, MDA-MB-231, 72 h, read-out: GI50 (μM) MDA-MB231 (breast); for 50% growth inhibitory concentration: human breast cancer cells
Protocol: (§1) Cell Growth Inhibition[34] Cells were plated (500–2000 cells/well depending on the cell line) in 96-well microplates, allowed to attach and grow for 48 h, then treated with vehicle (4% DMSO, a concentration that allowed doubling times of 24 h or less) or test agent (50, 10, 2, 0.4 and 0.08 μM for the new agents; 0.001, 0.005, 0.010, 0.020 and 0.100 μM for paclitaxel and discodermolide) for the given times. One plate consisted of cells from each line used for a time zero cell number determination. The other plates in a given determination contained eight wells of control cells, eight wells of medium and each agent concentration tested in quadruplicate. Cell numbers were obtained spectrophotometrically (absorbance at 490 nm minus that at 630 nm) in a Dynamax plate reader after treatment with 3-(4,5-dimethylthiazol-2-yl)-5-(3-carboxymethoxyphenyl)-2-(4-sulfophenyl)-2H-tetrazolium (MTS) using phenazine methanesulfonate as the electron acceptor. After initial screening with the above 5-fold dilutions, fifty percent growth inhibitory concentration (GI50) values were determined for each agent by repeating the screen using 2-fold dilutions (five concentrations) centered on the initial estimated GI50 concentration, again in quadruplicate.

2008 (ovarian) = test: Cell growth inhibition, 2008 (ovarian); format: cell-based, human; conditions: for GI50: Homo sapiens, 72 h, read-out: GI50 (μM) 2008 (ovarian); for 50% growth inhibitory concentration: human ovarian cancer cells
Protocol: as §1

tubulin = test: Tubulin polymerization (microtubule stabilizing activity); format: biochemical, bovine; conditions: in comparison to 10 μM paclitaxel; turbidity, cold-induced disassembly
Protocol: Tubulin Polymerization.[32] Tubulin assembly was followed in a Beckman-Coulter 7400 spectrophotometer, equipped with an electronic Peltier temperature controller, reading absorbance (turbidity) at 350 nm. Reaction mixtures (0.25 mL final volume) contained tubulin (final concentration 10 μM; 1 mg/mL), monosodium glutamate (0.8 M from a stock solution adjusted to pH 6.6 with HCl), DMSO (final volume 4% v/v), and differing concentrations of test agent where indicated. Reaction mixtures without test agent were cooled to 0° C. and added to cuvettes held at 0.25–0.5° C. in the spectrophotometer. Test agent in DMSO was then rapidly mixed in the reaction mixture. Each run contained one positive control (paclitaxel, 10 μM final concentration) and one negative control (DMSO only). Baselines were established at 0.25–2.5° C. and temperature was rapidly raised to 30° C. (in approximately 1 min) and held there for 20 min.

PC3 (prostate) = test: Cell growth inhibition, PC3 (prostate); format: cell-based; conditions: Homo sapiens, 72 h, read-out: GI50 (μM) PC3 (prostate)
Protocol: as §1

Row | SMILES | 50% growth inhibitory concentration (MDA-MB231 (breast)) | Tubulin polymerization-inducing properties (FIGS. 6A-D, in words) (tubulin) | 50% growth inhibitory concentration (2008 (ovarian)) | further results
1 | C=C/C=C\[C@H](C)[C@H](OC(N)=O)[C@@H](C)[C@H](O)CC/C=C\[C@H](C)[C@H](O)[C@@H](C)/C=C\CC[C@@H]1OC(=O)[C@H](C)[C@@H](OCOC)[C@H]1C [Compound 41, Carbamic acid, (1S,2S,3R,6Z,8S,9S,10S,11Z)-3,9-dihydroxy-14-[(2S,3S,4S,5R)-4-methoxymethoxy-3,5-dimethyl-6-oxotetrahydropyran-2-yl]-2,8,10-trimethyl-1-[(1S,2Z)-1-methylpenta-2,4-dienyl]tetradeca-6,11-dienyl ester] | submicromolar | more rapid polymer-inducing and cold-resistant properties; also recorded: most potent among these analogs |  | Displacement of [3H]paclitaxel from microtubules (in words) ([1]; 2-fold molar excess of test agent): better than paclitaxel and at almost the same potency as discodermolide; GI50 (MDA-MB231 (breast)): 0.87 ± 0.21 µM; GI50 (2008 (ovarian)): 0.65 ± 0.25 µM; GI50 (PC3 (prostate)): 1.8 ± 0.9 µM
2 | C=C/C=C\[C@H](C)[C@H](OC(N)=O)[C@@H](C)[C@H](O)CC/C=C\[C@H](C)[C@H](O)[C@@H](C)/C=C\CC[C@@H]1O[C@@H](OC)[C@H](C)[C@@H](OCOC)[C@H]1C [Compound 42, Carbamic acid, (1S,2S,3R,6Z,8S,9S,10S,11Z)-3,9-dihydroxy-14-[(2S,3S,4S,5R,6R)-6-methoxy-4-methoxymethoxy-3,5-dimethyltetrahydropyran-2-yl]-2,8,10-trimethyl-1-[(1S,2Z)-1-methylpenta-2,4-dienyl]tetradeca-6,11-dienyl ester] |  | more rapid polymer-inducing and cold-resistant properties |  | GI50 (MDA-MB231 (breast)): 3.4 ± 0.8 µM; GI50 (2008 (ovarian)): 4.7 ± 0.6 µM; GI50 (PC3 (prostate)): 15 ± 3 µM
3 | C=CC=C[C@H](C)[C@H]1OC(=O)CCCCCCCCC=C[C@H](C)[C@H](O)[C@@H](C)C=CCC[C@@H](O)[C@H]1C [Compound 43, (1S,13S,14S,15S,20R,21R,22R)-14,20-Dihydroxy-13,15,21-trimethyl-22-(1-methylpenta-2,4-dienyl)-oxacyclodocosa-11,16-dien-2-one] | 15 to 30 µM |  | 15 to 30 µM | 
4 | C=CC=C[C@H](C)[C@@H](O)[C@H](C)[C@H](O)CCC=C[C@H](C)[C@@H](O)[C@@H](C)C=CCCCCCCCCCO [Compound 47, (12S,13S,14S,19R,20R,21R,22S)-12,14,20,22-Tetramethylhexacosa-10,15,23,25-tetraene-1,13,19,21-tetraol] | 15 to 30 µM |  | 15 to 30 µM | 
5 | C=CC=C[C@H](C)[C@@H](O)[C@H](C)[C@H](O)CCC=C[C@H](C)[C@@H](O)[C@@H](C)C=CCCCCCCCCC(=O)OC [Compound 48, (12S,13S,14S,19R,20R,21R,22S)-13,19,21-Trihydroxy-12,14,20,22-tetramethylhexacosa-10,15,23,25-tetraenoic acid methyl ester] | 15 to 30 µM |  | 15 to 30 µM | 
6 | C=CC=C[C@H](C)[C@@H](O)[C@H](C)[C@H](O)CCC=C[C@H](C)[C@@H](O)[C@@H](C)C=CCCCCCCCCC(=O)O [Compound 49, (12S,13S,14S,19R,20R,21R,22S)-13,19,21-Trihydroxy-12,14,20,22-tetramethylhexacosa-10,15,23,25-tetraenoic acid] | > 50 µM |  | > 50 µM | 
7 | C=CC=CC(C)[C@H]1OC(=O)C=CC=C[C@@H](C)[C@H](O)CCC=C[C@H](C)[C@H](O)[C@@H](C)C=CCC[C@@H](O)[C@H]1C (stereo partly drawn) [Compound 54, (7R,8R,13S,14S,15S,20R,21R,22R,23S)-8,14,20-Trihydroxy-7,13,15,21-tetramethyl-22-(1-methylpenta-2,4-dienyl)-oxacyclodocosa-3,5,11,16-tetraen-2-one] | about 1 μM |  | about 1 μM | [3H]paclitaxel displacement potency relative to discodermolide ([1]; [3H]paclitaxel stoichiometrically bound to microtubules): about ⅓
8 | C=C/C=C\[C@H](C)[C@H](OC(N)=O)[C@@H](C)[C@H](O)[C@@H](C)C/C(C)=C\[C@H](C)[C@@H](O)[C@@H](C)/C=C\[C@@H](O)C[C@@H]1OC(=O)[C@H](C)[C@@H](O)[C@H]1C [discodermolide, (+)-discodermolide] |  | superior to paclitaxel |  | 
